Columns and labels:
[1] = test system: bladder contraction induced by methacholine; type: in vivo; settings: guinea pig
From the text: Male Std:Hartley guinea pigs (Japan SLC Inc., week of age at the time of use: 6 weeks of age, from 340.6 to 488.0 g in body weight) were anesthetized with urethane. The abdominal region was subjected to median incision, and then both sides of ureters were ligated in order to prevent inflow of urine from the kidney to the bladder. After ligation of the bladder cervix, a catheter for intravesical pressure measurement use was inserted from the bladder apex and fixed by ligation. Thereafter, in order to measure intravesical pressure, 1 ml of physiological saline was injected into the bladder. Next, a catheter was indwelled in the left jugular vein. The intravesical pressure was measured via an amplifier for strain pressure use (Nihon Kohden Corporation, CARRIER ANPLIFIER AP-601G) by connecting the catheter for intravesical pressure measuring use to a pressure transducer (Nihon Kohden Corporation, LIFE KIT DX-100). By inserting a catheter into the jugular vein, imidafenacin was administered by continuous intravenous infusion (100 μl/kg/min). After 75 minutes of the commencement of administration of the agent liquid, methacholine (10 μg/kg) was intravenously administered to induce bladder contraction. The bladder contraction inhibitory activity was evaluated using peak height of the bladder contraction induced by methacholine as the index. […]

[2] = test system: airway contraction induced by methacholine; test: Airway contraction measuring method (Konzett & Rossler), methacholine-induced; type: in vivo; settings: guinea pig
Experimental: Male Std:Hartley guinea pigs (Japan SLC Inc., week of age at the time of use: 6 weeks of age, from 340.6 to 488.0 g in body weight) were anesthetized with urethane, and a canula was inserted into the trachea. The trachea canula was connected to a quantitative artificial ventilator, and under artificial respiration, a catheter was indwelled in the left jugular vein. Measurement of the airway contraction was carried out by the Konzett & Rossler method. Guinea pigs were subjected to artificial respiration at a ventilation of 4 ml/animal and a ventilation frequency of 70 times/minute. Changes in the ventilation pressure were measured by a transducer (UGO BASILE, BRONCHOSPASM TRANSDUCER 7020) connected to the sub-bypass of the trachea canula. By inserting a catheter into the jugular vein, imidafenacin was administered by continuous intravenous infusion (100 μl/kg/min). After 75 minutes of the start of administration of the agent liquid, methacholine (10 μg/kg) was intravenously administered to induce airway contraction. The airway contraction inhibitory activity was evaluated using peak height of the airway contraction induced by methacholine as the index.
In this connection, the blood concentration measurement was carried out by LC/MS/MS using blood plasma.

[3] = continuous intravenous infusion, methacholine 10 μg/kg after 75 minutes

Cc1nccn1CCC(C(N)=O)(c1ccccc1)c1ccccc1 [imidafenacin, 4-(2-methyl-1-imidazolyl)-2,2-diphenylbutylamide]
ID50, bladder contraction inhibitory activity [1, 3]: 0.064 µg/kg/min
blood concentration at around the ID50 value (intravesical pressure) ([1]; male, Hartley, in vivo): about 1 ng/ml
ID50, airway contraction inhibitory activity [2, 3]: 0.061 µg/kg/min
blood concentration at around the ID50 value (airway contraction) ([2]; plasma, LC/MS/MS): about 1 ng/ml

From patent US20110071204A1, “PERCUTANEOUS ABSORPTION PREPARATION” (KYORIN PHARMACEUTICAL CO., LTD., priority 2005, published 2011)
